Test results: paper PMC4604124, “In Vitro Characterization of the Pharmacological Properties of the Anti-Cancer Chelator, Bp4eT, and Its Phase I Metabolites” (PLoS ONE, 2015)
Where “and” joins values, the source holds several entries; their conditions need not be identical. Equal values may be shown once.

What was measured:
caspase 8 = assay: Caspase activity, luminescent kit, caspase 8; type: cell-based, human; settings: for Caspase 8 activity, % of the control: 100 nM, MCF-7, corrected for viability; for kaspáza 8, průměry (means of raw signal): mean of 4 experiments; for kaspáza 8, raw signal / kaspáza 8, signal / viabilita: individual experiments by date
[1] = Ascorbate oxidation assay (redox activity of iron complexes); type: biochemical;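 as to %Fe 30min (ascorbate oxidation, Fe 100%), průměr: IBE 3 means excess free chelator over iron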;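 as to %Fe 30min (ascorbate oxidation, Fe = 100%), průměr (mean): IBE 1 means iron-binding equivalents giving fully coordinated iron-chelator complexes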;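 as to %Fe 30min (ascorbate oxidation, Fe = 100%), single replicates: IBE 1 means iron-binding equivalents giving fully coordinated iron-chelator complexes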;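 as to %Fe 30min: ascorbate oxidation as % of the Fe control (Fe 100%): IBE 0.1 means iron-binding equivalents with iron in excess over chelator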;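 as to odečet 0 (reading minus time 0 reading) at čas 20, single replicates: IBE 1 means fully coordinated iron chelator complexes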;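 as to odečet 0 (reading minus time 0 reading) at čas 30, průměr (mean): IBE 1 means fully coordinated iron chelator complexes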;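 as to odečet 0 (reading minus time 0 reading) at čas 30, single replicates: IBE 1 means fully coordinated iron chelator complexes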;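 as to raw reading at čas 20 (time 20), průměr (mean): IBE 1 means fully coordinated iron chelator complexes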;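 as to raw reading at čas 20 (time 20), single replicates: IBE 1 means fully coordinated iron chelator complexes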;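 as to raw reading at čas 30 (time 30), průměr (mean): IBE 1 means fully coordinated iron chelator complexes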;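 as to raw reading at čas 30 (time 30), single replicates: IBE 1 means fully coordinated iron chelator complexes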
[2] = sheet IBE 1, time 10, replicates
[3] = sheet IBE 1, time 20, replicates
[4] = sheet IBE 1, time 30, replicates

Compound: CCNC(=S)NN=C(c1ccccc1)c1ccccn1 [Bp4eT, 2-benzoylpyridine 4-ethyl-3-thiosemicarbazone]
- Caspase 8 activity, % of the control (caspase 8; 24 h): 125%
- Caspase 8 activity, % of the control (caspase 8; 72 h): 189%
- kaspáza 8, % kontroly (caspase 8; 3 hodiny (3 h), % of control): 95.86%
- kaspáza 8, průměry (means of raw signal) (caspase 8; 3 hodiny (3 h)): 1343.75
- kaspáza 8, raw signal (caspase 8; 3 hodiny): 2059 and 1157 and 1253.5 and 905.5
- kaspáza 8, raw signal, průměry (caspase 8; 3 hodiny, mean): 1343.75
- kaspáza 8, % kontroly (caspase 8; 3 hodiny, mean, normalised to viability): 100.78 % kontroly
- kaspáza 8, signal / viabilita (caspase 8; 3 hodiny, normalised to viability): 21.3728 and 12.0099 and 13.0116 and 9.399
- kaspáza 8, signal / viabilita, průměry (caspase 8; 3 hodiny, normalised to viability, mean): 13.9484
- kaspáza 8, % kontroly (caspase 8; 24 hodin (24 h), % of control): 66.28%
- kaspáza 8, průměry (means of raw signal) (caspase 8; 24 hodin (24 h)): 1049.5
- kaspáza 8, raw signal (caspase 8; 24 hodin): 1182.5 and 845.5 and 1242.5 and 927.5
- kaspáza 8, raw signal, průměry (caspase 8; 24 hodin, mean): 1049.5
- kaspáza 8, % kontroly (caspase 8; 24 hodin, mean, normalised to viability): 125.02 % kontroly
- kaspáza 8, signal / viabilita (caspase 8; 24 hodin, normalised to viability): 22.3747 and 15.9981 and 23.51 and 17.5497
- kaspáza 8, signal / viabilita, průměry (caspase 8; 24 hodin, normalised to viability, mean): 19.8581
- kaspáza 8, % kontroly (caspase 8; 72 hodin (72 h), % of control): 50.72%
- kaspáza 8, průměry (means of raw signal) (caspase 8; 72 hodin (72 h)): 3576.88
- kaspáza 8, raw signal (caspase 8; 72 hodin): 5283 and 3499.5 and 2666 and 2859
- kaspáza 8, raw signal, průměry (caspase 8; 72 hodin, mean): 3576.88
- kaspáza 8, % kontroly (caspase 8; 72 hodin, mean, normalised to viability): 188.91 % kontroly
- kaspáza 8, signal / viabilita (caspase 8; 72 hodin, normalised to viability): 195.017 and 129.181 and 98.4127 and 105.537
- kaspáza 8, signal / viabilita, průměry (caspase 8; 72 hodin, normalised to viability, mean): 132.037
- %Fe 30min: ascorbate oxidation as % of the Fe control (Fe 100%) ([1]; IBE 0.1, 30 min, mean (průměr)): 114.3%
- Change of absorbance after subtraction of time 0 (odečet 0) ([1]; IBE 0.1, time 10, mean (průměr)): -0.04348
- Change of absorbance after subtraction of time 0 (odečet 0) ([1]; IBE 0.1, time 20, mean (průměr)): -0.0765
- Change of absorbance after subtraction of time 0 (odečet 0) ([1]; IBE 0.1, time 30, mean (průměr)): -0.108
- Absorbance (ascorbate, λ = 265 nm) ([1]; IBE 0.1, čas 0 (time 0), mean (průměr)): 0.839
- Absorbance (ascorbate, λ = 265 nm) ([1]; IBE 0.1, čas 10 (time 10), mean (průměr)): 0.7956
- Absorbance (ascorbate, λ = 265 nm) ([1]; IBE 0.1, čas 20 (time 20), mean (průměr)): 0.7625
- Absorbance (ascorbate, λ = 265 nm) ([1]; IBE 0.1, čas 30 (time 30), mean (průměr)): 0.731
- Ascorbate oxidation, % of the control ([1]; IBE 1): significant (p < 0.001) increase
- Ascorbate oxidation, % of the control ([1]; IBE 3): significant (p < 0.001) increase
- %Fe 30min (ascorbate oxidation, Fe = 100%), průměr (mean) ([1]; sheet IBE 1, 30min, Fe 100%, mean): 274.4%
- %Fe 30min (ascorbate oxidation, Fe = 100%), single replicates ([1]; sheet IBE 1, 30min, Fe 100%, replicates): 326.6% and 305.9% and 307.7% and 264.1% and 243.3% and 218.6% and 291.9% and 257% and 254.6%
- raw reading at čas 0 (time 0), průměr (mean) ([1]; sheet IBE 1, time 0, mean of 9 readings): 0.8081
- raw reading at čas 0 (time 0), single replicates ([1]; sheet IBE 1, time 0, replicates of 2014-03-24 (two runs) and 2014-03-25): 0.8198 and 0.8003 and 0.8337 and 0.8268 and 0.8308 and 0.7872 and 0.7839 and 0.7637 and 0.8272
- odečet 0 (reading minus time 0 reading) at čas 10, průměr (mean) ([1]; sheet IBE 1, time 10, mean): -0.1075
- raw reading at čas 10 (time 10), průměr (mean) ([1]; sheet IBE 1, time 10, mean of 9 readings): 0.7006
- odečet 0 (reading minus time 0 reading) at čas 10, single replicates [1, 2]: -0.1527 and -0.1456 and -0.1532 and -0.1025 and -0.07863 and -0.05463 and -0.1235 and -0.07821 and -0.07861
- raw reading at čas 10 (time 10), single replicates [1, 2]: 0.681 and 0.6812 and 0.6776 and 0.6847 and 0.7053 and 0.7091 and 0.7037 and 0.7416 and 0.7217
- odečet 0 (reading minus time 0 reading) at čas 20, průměr (mean) ([1]; sheet IBE 1, time 20, mean): -0.1811
- raw reading at čas 20 (time 20), průměr (mean) ([1]; sheet IBE 1, time 20, mean of 9 readings): 0.627
- odečet 0 (reading minus time 0 reading) at čas 20, single replicates [1, 3]: -0.2337 and -0.2156 and -0.2203 and -0.1671 and -0.1458 and -0.1256 and -0.1987 and -0.1601 and -0.163
- raw reading at čas 20 (time 20), single replicates [1, 3]: 0.6 and 0.6112 and 0.6105 and 0.6201 and 0.6381 (2×) and 0.6284 and 0.6597 and 0.6373
- odečet 0 (reading minus time 0 reading) at čas 30, průměr (mean) ([1]; sheet IBE 1, time 30, mean): -0.2442
- raw reading at čas 30 (time 30), průměr (mean) ([1]; sheet IBE 1, time 30, mean of 9 readings): 0.5639
- odečet 0 (reading minus time 0 reading) at čas 30, single replicates [1, 4]: -0.2822 and -0.2643 and -0.2658 and -0.2282 and -0.2102 and -0.1888 and -0.2754 and -0.2425 and -0.2402
- raw reading at čas 30 (time 30), single replicates [1, 4]: 0.5515 and 0.5624 and 0.5649 and 0.5591 and 0.5737 and 0.5749 and 0.5518 and 0.5772 and 0.56
- %Fe 30min (ascorbate oxidation, Fe 100%), průměr ([1]; sheet IBE 3, 30min, Fe alone = 100%, mean (průměr) of the 9 replicates): 278.6%
